From patent US7501454B2, “Cyclohexenone compounds from Antrodia camphorata to treat autoimmune diseases” (Golden Biotechnology Corporation, priority 2007, dated 2009) come the findings set out here.

Molecules are shown by their SMILES.

For experiment [1], the system named is female NZB/WF1 SLE mice. Nature of the experiment: Changes of proteinuria in female NZB/WF1 SLE mice (Bio-Rad protein assay of urine). It counts as in vivo. The settings on record: for proteinuria level: negative control 246 mg/dl. The method, then:
(§1) Female NZB/WF1 mice spontaneously develop human SLE-like syndromes, such as generation of antinuclear autoantibodies, proteinuria, and renal toxicity to cause death. The disease is more severe in female mice than in male mice; the morbidity of female mice is also higher than that of male mice. Therefore, female NZB/WF1 mice were used for screening anti-SLE drugs in this study.
(§2) Thirty female NZB/WF1 mice (purchased from Jackson Lab, USA) between 12-24 weeks of age were analyzed biweekly to determine proteinuria levels, monthly to assess the titers of antinuclear autoantibody (ANA). The increased titers of ANA and positive response implicated that female NZB/WF1 mice were going to develop SLE and were ready for grouping. At 22 weeks of age, the animals showing the abovementioned syndromes were randomly divided into 3 groups (10 mice per group, water was administered to negative control group, steroid was given to positive control group, and cyclohexenone compounds of Antrodia camphorata was administered to experiment group), and the start time for the experiment was set as week zero. In addition, ten B6 mice (purchased from National Laboratory Animal Center, Taiwan) without SLE syndrome were normal mice served as blank group.
The blank group in Table 1 was B6 mice of no SLE syndrome, which received no treatment and normal diet for natural growth. NZB/WF1 female mice that were able to express SLE syndromes were served in negative control and positive control groups. Mice in the former group received normal water; in the latter were orally medicated with 1.25 mg/kg of prednisolone, the SLE drug. Mice in the experiment group were orally medicated with 50 mg/kg of cyclohexenone compounds from Example 1. […]
SLE patients develop renal inflammation and damage, which cause leakage of protein from kidney into the fluid. […] Ten μl of urine was assayed with Bio-Rad Protein Assay Dye Reagent Concentrate (Bio-Rad Laboratories, USA) and read under […] with an ELISA analyzer to determine the protein concentration with a standard curve.

Experiment [2] has as its system female NZB/WF1 SLE mice. Nature of the experiment: Titers of anti-dsDNA antinuclear antibodies in plasma of female NZB/WF1 SLE mice (Mouse Anti-dsDNA IgG ELISA kit). It counts as in vivo. How it is done:
as §1, §2
The blank group in Table 1 was B6 mice of no SLE syndrome, which received no treatment and normal diet for natural growth. NZB/WF1 female mice that were able to express SLE syndromes were served in negative control and positive control groups. Mice in the former group received normal water; in the latter were orally medicated with 1.25 mg/kg of prednisolone, the SLE drug. Mice in the experiment group were orally medicated with 50 mg/kg of cyclohexenone compounds from Example 1. The mice were fed with the abovementioned substances once per day starting at 23 weeks of age, and this period of time was referred to as the first week of this experiment. […]
The titers of dsDNA antinuclear antibodies were determined in this study to assess the effects of cyclohexenone compounds from Antrodia camphorata on SLE mice. […]
A general note: An ELISA detects its analyte on a solid surface through an enzyme-linked reagent.

For the molecule `COC1=C(OC)C(O)C(C/C=C(\C)CC/C=C(\C)CCC=C(C)C)C(C)C1=O` (stereo not drawn) [4-hydroxy-2,3-dimethoxy-6-methyl-5(3,7,11-trimethyl-dodeca-2,6,10-trienyl)-cyclohex-2-enone], the proteinuria level in the experiment on female NZB/WF1 SLE mice [1] (experiment group, 50 mg/kg oral once per day, after 6 weeks of experiment) was determined as 118.2 mg/dL. Further, the “fold increase of proteinuria level versus before experiment” value in the experiment on female NZB/WF1 SLE mice [1] (experiment group, 50 mg/kg oral once per day, after 6 weeks, negative control 2.76-fold) is 1.3 fold. The “titers of anti-dsDNA antinuclear antibodies compared with negative group” value with female NZB/WF1 SLE mice [2] (experiment group, 50 mg/kg oral once per day, during 8 weeks of experiment) is recorded as “significantly lower titers of anti-dsDNA antinuclear antibodies than those in the negative group”. The “titer of antinuclear antibodies decreased to” value with female NZB/WF1 SLE mice [2] (experiment group, 50 mg/kg oral once per day, week 8) came to 34%.

The molecule `C[C@]12C=CC(=O)C=C1CC[C@@H]1[C@@H]2[C@@H](O)C[C@@]2(C)[C@H]1CC[C@]2(O)C(=O)CO` [prednisolone, reference compound] had a proteinuria level in the experiment with female NZB/WF1 SLE mice [1] (positive control group, prednisolone 1.25 mg/kg oral once per day, after 6 weeks) of 32.6 mg/dL. In the experiment on female NZB/WF1 SLE mice [2] (positive group, prednisolone 1.25 mg/kg oral once per day, week 8), the “titer of anti-dsDNA antinuclear antibodies decreased to” value is listed as “around 50%”.
